Results reported in patent publication US20240299433A1, “PHARMACEUTICAL COMPOSITION CONTAINING AUCUBIN FOR PREVENTING OR TREATING MACULAR DEGENERATION” (INDUSTRIAL COOPERATION FOUNDATION JEONBUK NATIONAL …, priority 2019, published 2024).

Experiments:
[1] = test system: N-methyl-N-nitrosourea (MNU)-induced photoreceptor cell degeneration mouse; experiment: Histopathology (H&E), outer nuclear layer thickness of retinal tissue; assay type: in vivo, C57BL/6 mice; conditions: aucubin 15 mg/kg/day orally for 7 days; MNU 60 mg/kg intraperitoneally
Description: (§1) Six-week-old male C57BL/6 mice were purchased from Orient (Seongnam, Korea) and used after acclimatization for 1 week. N-methyl-N-nitrosourea (MNU, Sigma, USA) was prepared to a concentration of 1% in 0.05% acetic acid solution to induce damage and degeneration of photoreceptor cells among the morphologic changes in retinal tissue seen in macular degeneration, and 7-week-old male C57BL/6 mice were administered 1% MNU solution intraperitoneally at 60 mg/kg per animal. In the normal group, only an equivalent amount of 0.05% acetic acid was administered intraperitoneally. […] The inventors measured the electroretinogram. […] After the pupils were dilated, an appropriate amount of 1% methylcellulose was applied to the eyes while maintaining body temperature, and a gold wire loop recording electrode was grounded to the cornea, a reference electrode was placed on the cheek area, and a ground electrode was grounded to the tail, and the ERG was measured using a Retiport (Roland consult, Germany). […]
After the end of study drug (aucubin) administration, necropsy was performed and the eyes were enucleated, fixed in 10% neutralized formalin for 1 day, and embedded in paraffin to prepare slide sections. […] Photoreceptor cell damage & deformation was assessed by measuring the change in thickness of the outer nuclear layer (ONL) of retinal tissue. […]

[2] = test system: N-methyl-N-nitrosourea (MNU)-induced photoreceptor cell degeneration mouse; experiment: TUNEL staining of retinal sections (anti-apoptotic effect); assay type: in vivo, C57BL/6 mice; conditions: aucubin 15 mg/kg/day orally for 7 days; versus MNU-treated group
Description: as §1, with “intraperitoneally. Aucubin was prepared by dissolving in sterile tertiary distilled water to a concentration of 15 mg/kg/day and administered orally once daily for 7 days starting on the same day as MNU administration.” for “intraperitoneally.”
Retinal sections were made 4 μm thick. […] In the MNU-treated group, a number of apoptotic cells were observed, but these were mainly detected in the outer nuclear layer.

[3] = test system: N-methyl-N-nitrosourea (MNU)-induced photoreceptor cell degeneration mouse; experiment: 8-OHdG immunohistochemical staining of retinal sections (antioxidant effect); assay type: in vivo, C57BL/6 mice; conditions: aucubin 15 mg/kg/day orally for 7 days; compared to the MNU-treated group
Description: as §1
The formation of 8-hydroxydeoxyguanosine (8-OHdG) induced by the oxidation of guanine is a well-known marker for oxidative DNA damage. […] The Invision kit (DAKO, Carpinteria, CA, USA) detected signals visualized with aminoethylcarbazole. […]

[4] = test system: primary cultured retinal cells; experiment: Oxidative stress (DCFH fluorescent probe) in primary cultured retinal cells; assay type: cell-based, C57BL/6 mice; conditions: aucubin in presence of MNU 100 μg/mL, 24 hours
[5] = test system: primary cultured retinal cells; experiment: Apoptosis (TUNEL staining) in primary cultured retinal cells; assay type: cell-based, C57BL/6 mice; conditions: aucubin in presence of MNU 100 μg/mL, 24 hours
Description: Cells were resuspended in the above medium without DNase. […] MNU treatment was cytotoxic in retinal cells. […] Apoptotic cells were measured by TUNEL staining.

[6] = test system: primary cultured retinal cells; experiment: Cell viability (MTS assay) of primary cultured retinal cells; conditions: 24 hours
Description: Retinas were isolated by eye enucleation from C57BL/6 mice (Orient Bio, Seoul, Korea) and dissociated with papain for 15 minutes at 37° C. Neuronal basal medium (Gibco) containing ovomucoid (Sigma Aldrich) and DNase (Sigma Aldrich) was added, and cells were centrifuged at 100×g for 8 min. Cells were resuspended in the above medium without DNase. Retinal cells were maintained in neurobasal medium with L-glutamine and B27 supplement (Gibco). Retinal cells were identified by immunostaining for rhodopsin (a marker for membrane photoreceptor cells) and glial fibrillary acidic protein (Muller glia). The cultured cells contained 65% rod photoreceptor cells and 28% Muller glia. Retinal cells were plated (1*10^4 cells/well) in 96-well plates for 24 hours, and the medium was exchanged with different concentrations of aucubin in the presence or absence of MNU (100 μg/mL) and cultured for 24 hours. Cell viability was then examined using a cell proliferation assay reagent (MTS assay kit, Promega Corporation, Madison, WI, USA).

[7] = test system: N-methyl-N-nitrosourea (MNU)-induced photoreceptor cell degeneration mouse; experiment: Electroretinogram (ERG) in MNU-induced photoreceptor cell degeneration mouse; assay type: in vivo, C57BL/6 mice; conditions: MNU 60 mg/kg intraperitoneally, mice
Description: Six-week-old male C57BL/6 mice were purchased from Orient (Seongnam, Korea) and used after acclimatization for 1 week. N-methyl-N-nitrosourea (MNU, Sigma, USA) was prepared to a concentration of 1% in 0.05% acetic acid solution to induce damage and degeneration of photoreceptor cells among the morphologic changes in retinal tissue seen in macular degeneration, and 7-week-old male C57BL/6 mice were administered 1% MNU solution intraperitoneally at 60 mg/kg per animal. In the normal group, only an equivalent amount of 0.05% acetic acid was administered intraperitoneally. Aucubin was prepared by dissolving in sterile tertiary distilled water to a concentration of 15 mg/kg/day and administered orally once daily for 7 days starting on the same day as MNU administration. An electroretinogram (ERG) is a record of the electrical signals generated by the […] in response to light and is used as an indicator of retinal damage or disease. The inventors measured the electroretinogram. […] After the pupils were dilated, an appropriate amount of 1% methylcellulose was applied to the eyes while maintaining body temperature, and a gold wire loop recording electrode was grounded to the cornea, a reference electrode was placed on the cheek area, and a ground electrode was grounded to the tail, and the ERG was measured using a Retiport (Roland consult, Germany). […]

OCC1=C[C@@H](O)[C@@H]2C=CO[C@@H](O[C@@H]3O[C@H](CO)[C@@H](O)[C@H](O)[C@H]3O)[C@H]12 [aucubin]
reduction of photoreceptor cell loss (ONL thickness) [1]: 9.8%+2.9%
photoreceptor cell death (TUNEL-positive apoptotic cells) in retina [2]: significantly prevented this cell death
8-OHdG levels (oxidative DNA damage) in retina [3]: significantly reduced
oxidative stress (DCFH dye) [4]: significantly decreased
apoptotic cells (TUNEL staining) [5]: significantly decreased
cell viability in presence of MNU ([6]; various concentrations of aucubin, MNU 100 μg/mL): cell viability was restored in a dose-dependent manner

CN(N=O)C(N)=O [MNU, N-methyl-N-nitrosourea]
reduction of a-wave amplitude [7]: 78%
reduction of b-wave amplitude [7]: 63%
cell viability compared to control cells ([6]; 100 μg/ml MNU alone): approximately 70%
